Numbers after ± are expanded uncertainties.
Assay: mn = molality of the nth substance listed, in mol/kg
Details: 100 kPa, Liquid

CC(C)C[C@H](NC(=O)[C@@H]1CCCN1)C(=O)O [proline-leucine] + O
mass density [kg/m3]
Details | 283.15 K | 288.15 K | 293.15 K | 298.15 K | 303.15 K | 308.15 K
m1 = 0.00191 | – | – | 998.299 ± 0.071 | – | – | 994.122 ± 0.073
m1 = 0.0025 | – | 999.209 ± 0.07 | 998.324 ± 0.071 | 997.166 ± 0.071 | – | 994.156 ± 0.073
m1 = 0.00255 | – | – | – | – | 995.771 ± 0.072 | –
m1 = 0.0035 | 999.851 ± 0.07 | 999.261 ± 0.07 | 998.368 ± 0.071 | 997.215 ± 0.071 | – | 994.198 ± 0.08
m1 = 0.00399 | – | 999.283 ± 0.07 | 998.394 ± 0.071 | – | – | –
m1 = 0.0045 | 999.901 ± 0.07 | 999.303 ± 0.07 | 998.416 ± 0.071 | 997.251 ± 0.071 | 995.856 ± 0.072 | 994.246 ± 0.073
m1 = 0.00505 | 999.956 ± 0.07 | 999.356 ± 0.07 | 998.452 ± 0.071 | – | – | 994.278 ± 0.073
m1 = 0.00549 | – | 999.353 ± 0.07 | 998.462 ± 0.071 | 997.3 ± 0.071 | 995.925 ± 0.072 | 994.294 ± 0.073
m1 = 0.00602 | 1000 ± 0.07 | 999.407 ± 0.07 | 998.502 ± 0.071 | 997.35 ± 0.071 | 995.943 ± 0.072 | 994.322 ± 0.073
m1 = 0.00649 | – | – | 998.533 ± 0.071 | 997.374 ± 0.071 | 995.96 ± 0.072 | 994.345 ± 0.073
m1 = 0.00709 | 1000.06 ± 0.07 | 999.445 ± 0.07 | 998.552 ± 0.07 | 997.381 ± 0.071 | – | –
m1 = 0.00748 | – | 999.48 ± 0.07 | 998.581 ± 0.071 | 997.416 ± 0.071 | 995.999 ± 0.072 | 994.392 ± 0.073
m1 = 0.00776 | 1000.09 ± 0.07 | – | – | – | – | –
m1 = 0.00833 | – | 999.516 ± 0.07 | 998.63 ± 0.07 | – | 996.05 ± 0.072 | 994.433 ± 0.073
m1 = 0.00849 | – | 999.544 ± 0.07 | 998.633 ± 0.07 | 997.468 ± 0.071 | 996.044 ± 0.073 | 994.436 ± 0.073
m1 = 0.00904 | 1000.16 ± 0.07 | 999.542 ± 0.07 | 998.644 ± 0.07 | – | – | –
m1 = 0.00949 | – | 999.594 ± 0.07 | 998.69 ± 0.07 | 997.521 ± 0.071 | 996.091 ± 0.072 | –
m1 = 0.01004 | – | 999.608 ± 0.07 | 998.704 ± 0.07 | 997.541 ± 0.071 | 996.128 ± 0.072 | 994.51 ± 0.073
m1 = 0.0105 | 1000.24 ± 0.07 | 999.641 ± 0.07 | 998.74 ± 0.07 | 997.562 ± 0.071 | 996.136 ± 0.072 | –
m1 = 0.01084 | 1000.25 ± 0.07 | 999.633 ± 0.07 | – | 997.57 ± 0.071 | – | 994.545 ± 0.073
m1 = 0.01148 | 1000.3 ± 0.07 | 999.691 ± 0.07 | 998.787 ± 0.07 | 997.614 ± 0.071 | 996.183 ± 0.072 | –

Source: the NIST ThermoML archive (doi:10.1016/j.jct.2004.07.004)
